Reference: ChEMBL document CHEMBL1146417, “New anti-HIV-1, antimalarial, and antifungal compounds from Terminalia bellerica” (J Nat Prod, 1997)

Tests used:
[1] = tested on: Human immunodeficiency virus 1; experiment: Antiviral activity against HIV1 in MT4 cells assessed as reduction of HIV antigen production; format: functional, organism-based; settings: Human immunodeficiency virus 1, MT4
Candida albicans = experiment: Antifungal activity against Candida albicans IMI 349010 on TLC plate by agar overlay method; format: functional
Plasmodium falciparum = experiment: Antimalarial activity against chloroquine-sensitive Plasmodium falciparum 3D7 by [3H]hypoxanthine incorporation assay; format: functional, organism-based
Penicillium expansum = experiment: Antifungal activity against Penicillium expansum IMI 960902 on TLC plate by bioautographic method; format: functional

Molecule | EC50 [1] [µM] | Activity (Candida albicans) [µg] | IC50 (Plasmodium falciparum) [µM] | Activity (Penicillium expansum) [µg]
C=C(Cc1ccc(O)cc1)C(=C)Cc1ccc(OC)cc1O [TERMILIGNAN] | 7 | 10 | 9.6 | 1
C=C(Cc1ccc(O)cc1)C(=C)Cc1ccc(O)cc1 [ANOLIGNAN B] | 7 | >200 | 20.5 | 5
NYSTATIN |  |  |  | 0.5
Oc1ccc2c(c1)O[C@H](c1ccc3c(c1)OCO3)CC2 | 7 | 6 | > 50 | 3
C[C@@H]1[C@H](O)[C@@H](C)/C=C/C=C/C=C/C=C/C=C/C=C/C=C/[C@H](O[C@@H]2O[C@H](C)[C@@H](O)[C@H](N)[C@@H]2O)C[C@@H]2O[C@](O)(C[C@@H](O)C[C@@H](O)[C@H](O)CC[C@@H](O)C[C@@H](O)CC(=O)O[C@H]1C)C[C@H](O)[C@H]2C(=O)O [AMPHOTERICIN B] |  | 1 |  | 
C=C(Cc1ccc(O)cc1)C(O)(CO)Cc1ccc(OC)cc1O (stereo not drawn) [THANNILIGNAN] | 7 | 80 | > 50 | 2
